In PMC5113208 (2016):

Test system: RNA Spinach (RNA, aptamer) GGACGCGACCGAAAUGGUGAAGGACGGGUCCAGUGCGAAACACGCACUGUUGAGUAGAGUGUGAGCUCCGUAACUGGUCGCGUC
Experiment: fluorescence titration
Details: 140 mM KCl, 1 mM MgCl2; 10 mM NaH2PO4 pH 7.2, 0.05% Tween-20, room temperature

KD: 420 ± 40 nM
Structure (SMILES): CC1=N/C(=C\c2cc(F)c(O)c(F)c2)C(=O)N1C
